In patent US4288609A, “Quaternary ammonium derivatives of adamantane with antimicrobic activity” (priority 1976, dated 1981):
Where two headings read alike, the source gives them in different places.

How the values were obtained:
[1] = tested on: Candida Pseudotrop. ATCC 2512; experiment: MIC yeasts, Candida pseudotropicalis (Table 2); type: cell-based; settings: Sabourand broth
Procedure: (§1) The method for evaluating the activity in vitro against bacteria, fungi and protozoa consists in introducing calculated quantities of the substance, the activity of which it is desired to test, into culture media already inoculated with a predetermined number of test germs.
(§2) After 24 or 48 hours of incubation at 30° or 37° C., according to the micro-organism being tested, it is possible to evaluate the growth of the same in the culture broth; in this manner the minimum concentration (M.I.C.) which inhibits the growth of the micro-organisms in vitro is determined.
Inoculation with Candida albicans or Candida pseudotropicalis was made by diluting cultures grown for 24 h at 30° C. (cellular density inoculated 10^3 /ml).
(§3) For the fungi Sabourand broth was used as a culture medium, whilst for the protozoa Kupferberg Trichomonas broth with 5% of horse serum was used.

[2] = tested on: Nicrosporum Canis ATCC 11621; experiment: MIC mildews, Microsporum canis (Table 2); type: cell-based; settings: Sabourand broth
Procedure: as §1, §2
Inoculation with Trichophyton mentagrophytes and Microsporum canis was effected in a ratio of 1% of the volume of medium used.
as §3

Pseudomonas Aeruginosa = experiment: Antibacterial activity in vivo with topical treatment (Table 5); parameters: species or system female CF1 albino mice; settings: for animals alive on the 15th day / animals dead on the 15th day: 10 animals; for % survivors: topical, 15th day; for efficacy in vivo (in words): other concentrations considered
Procedure: After their backs have been shaved, female CF1 albino mice weighing 18-22 g are scorched (under ether anaesthetic) for 15 seconds with a pad of brass previously immersed in boiling water (7-8% of the body surface). After 90 minutes there is applied to the scorched area 0.1 ml of a suspension of Pseudomonas Aeruginosa bacteria having 15% transmittance at 650 nm. The bacterial strain in question produces a high incidence of mortality, induced by septicemic diffusion from the point of infection. After 90 minutes, with the aid of a glass rod suitably flattened at one end, the preparation containing a known concentration of the compound under examination is applied locally. The treatment is continued for a total of six days (once per day). On the fifteenth day the percentage of survivors to the tested doses in recorded.
The carrier used for applying the compounds under examination is an aqueous 0.75% solution of carboxymethyl-cellulose. The concentrations of the compounds tested are 2, 1, 0.5 and 0.25% by weight.

[3] = tested on: Streptococ. Henclyt. 0203; experiment: M.I.C. in vitro, gram+ Streptococ. Henclyt. (Table 1); type: cell-based; settings: for MIC: read-out: M.I.C.
Procedure: as §1, §2
(§4) In table 1 there are recorded the M.I.C. values in γ/ml of the products subject of the present invention, against certain gram+ and gram- bacterial strains, some of which are pathogenic towards human beings.

Esch. Coli. SKF 12140 = experiment: M.I.C. in vitro, gram- Esch. Coli (Table 1); type: cell-based, Escherichia Coli; settings: Escherichia coli, read-out: M.I.C.
Procedure: as §1, §2, §4

Proteus Vulc. ATCC 881 = experiment: M.I.C. in vitro, gram- Proteus Vulc. (Table 1); type: cell-based; settings: read-out: M.I.C.
Procedure: as §1, §2, §4

Trich. Foetus ISM 66/23 = experiment: MIC protozoa, Trichomonas foetus (Table 2); type: cell-based; settings: +10% serum (head), Kupferberg Trichomonas broth with 5% of horse serum
Procedure: as §1, §2
Inoculation with Trichomonas vaginalis and Trichomonas foetus, obtained from cultures transplanted every other day to make them lively, was effected in a ratio of 3.5% of the volume of medium used.
as §3

[4] = tested on: Staphylococcus Aureus Tour; experiment: Speed of sterilising action, Staphylococcus Aureus (Table 3); type: cell-based
Procedure: (§5) The strains, inoculants, culture broths and experimental methods are as already seen for calculating the M.I.C. in vitro. The antimicrobic substances were tested at concentrations of 0.1, 0.25, 0.5 and 1 g/l, the contact times taken into consideration are 0, 1, 2.5, 5, 7.5, 10, 15, 30 and 60 minutes.
(§6) The samples which at the 7th day of incubation still had no growth of micro-organisms which could be observed macroscopically and/or microscopically were considered sterile.
(§7) The results are recorded in Table 3 in terms of sterilization time expressed in minutes.

[5] = tested on: Trichomonas Vaginalis ISM 66/22; experiment: Speed of sterilising action, Trichomonas Vaginalis (Table 3); type: cell-based
Procedure: as §5, §6, §7

[6] = Candida, ATCC2512, +10% serum, read-out: MIC
[7] = Candida, ATCC2512, without serum, read-out: MIC
[8] = Microsporum canis, ATCC11621, +10% serum, read-out: MIC
[9] = Microsporum canis, ATCC11621, without serum, read-out: MIC
[10] = Tritrichomonas foetus, read-out: MIC

With `CCCCCCCCCCCC[N+](C)(C)CCNC(=O)C12CC3CC(CC(C3)C1)C2` [Example 8] the MIC [1, 6] was 20 µg/mL, the MIC [1, 7] was less than 0.1 µg/mL and the MIC [2, 8] was 20 µg/mL. The MIC [2, 9] was 0.1 µg/mL, the “animals alive on the 15th day” value (Pseudomonas Aeruginosa; 0.25% by weight) was 3 and the “animals dead on the 15th day” value (Pseudomonas Aeruginosa; 0.25% by weight) was 7. For the same compound, the “% survivors” value (Pseudomonas Aeruginosa; 0.25% by weight) was 30%, the “animals alive on the 15th day” value (Pseudomonas Aeruginosa; 0.5% by weight) was 6 and the “animals dead on the 15th day” value (Pseudomonas Aeruginosa; 0.5% by weight) was 5. For the same compound, the “% survivors” value (Pseudomonas Aeruginosa; 0.5% by weight) was 60%, the “animals alive on the 15th day” value (Pseudomonas Aeruginosa; 1% by weight) was 6 and the “animals dead on the 15th day” value (Pseudomonas Aeruginosa; 1% by weight) was 4. The “% survivors” value (Pseudomonas Aeruginosa; 1% by weight) was 60%, the “animals alive on the 15th day” value (Pseudomonas Aeruginosa; 2% by weight) was 7 and the “animals dead on the 15th day” value (Pseudomonas Aeruginosa; 2% by weight) was 3. The “% survivors” value (Pseudomonas Aeruginosa; 2% by weight) was 70%, the “efficacy in vivo (in words)” value (Pseudomonas Aeruginosa) was “secure efficacy” and the MIC ([3]; +10% serum) was 1 µg/mL. The MIC ([3]; without serum) was less than 0.1 µg/mL, the MIC (Esch. Coli. SKF 12140; +10% serum) was 100 µg/mL and the MIC (Esch. Coli. SKF 12140; without serum) was 2 µg/mL. For the same compound, the MIC (Proteus Vulc. ATCC 881; +10% serum) was 100 µg/mL, the MIC (Proteus Vulc. ATCC 881; without serum) was 5 µg/mL and the MIC (Trich. Foetus ISM 66/23; [10]) was 1 µg/mL.
In the case of `CCCCCCCCCC[N+](C)(C)CCOC(=O)C12CC3CC(CC(C3)C1)C2` (single isomer, unassigned) [Example 1, n-Decyl-dimethyl-(1-adamantane-carboxy)-ethyl-ammonium bromide], the MIC ([1]; +10% serum) is reported as 20 µg/mL, the MIC ([1]; without serum) is reported as less than 0.1 µg/mL and the sterilization time ([4]; 0.1 g/l) is reported as 7.5 min. For the same compound, the sterilization time ([4]; 0.25 g/l) was 2.5 min, the sterilization time ([4]; 0.5 g/l) was 1 min and the sterilization time ([4]; 1 g/l) was 1 min. The MIC [2, 8] was 10 µg/mL, the MIC ([2]; without serum) was 0.1 µg/mL and the “animals alive on the 15th day” value (Pseudomonas Aeruginosa; 0.25% by weight) was 5. The “animals dead on the 15th day” value (Pseudomonas Aeruginosa; 0.25% by weight) was 5, the “% survivors” value (Pseudomonas Aeruginosa; 0.25% by weight) was 50% and the “animals alive on the 15th day” value (Pseudomonas Aeruginosa; 0.5% by weight) was 6. For the same compound, the “animals dead on the 15th day” value (Pseudomonas Aeruginosa; 0.5% by weight) was 4, the “animals alive on the 15th day” value (Pseudomonas Aeruginosa; 1% by weight) was 8 and the “animals dead on the 15th day” value (Pseudomonas Aeruginosa; 1% by weight) was 2. The “% survivors” value (Pseudomonas Aeruginosa; 1% by weight) was 80%, the “animals alive on the 15th day” value (Pseudomonas Aeruginosa; 2% by weight) was 8 and the “animals dead on the 15th day” value (Pseudomonas Aeruginosa; 2% by weight) was 2. The “% survivors” value (Pseudomonas Aeruginosa; 2% by weight) was 80%, the “efficacy in vivo (in words)” value (Pseudomonas Aeruginosa) was “secure efficacy” and the M.I.C. ([3]; +10% serum) was 0.1 µg/mL. It also gave an MIC ([3]; without serum) of less than 0.1 µg/mL, an MIC (Esch. Coli. SKF 12140; +10% serum) of 50 µg/mL and an MIC (Esch. Coli. SKF 12140; without serum) of 5 µg/mL. It also gave a sterilization time ([5]; 0.1 g/l) of 2.5 min, a sterilization time ([5]; 0.25 g/l) of 1 min and a sterilization time ([5]; 0.5 g/l) of 1 min. The sterilization time ([5]; 1 g/l) was 1 min, the MIC (Proteus Vulc. ATCC 881; +10% serum) was 50 µg/mL and the MIC (Proteus Vulc. ATCC 881; without serum) was 10 µg/mL. For the same compound, the MIC (Trich. Foetus ISM 66/23) was 2 µg/mL.
For `CCCCCCCCCCCC[N+](C)(C)CCOC(=O)C12CC3CC(CC(C3)C1)C2` [Example 4], the MIC [1, 6] was 50 µg/mL, the MIC [1, 7] was 0.1 µg/mL and the sterilization time ([4]; 0.1 g/l) was 7.5 min. The sterilization time ([4]; 0.25 g/l) was 5 min, the sterilization time ([4]; 0.5 g/l) was 1 min and the sterilization time ([4]; 1 g/l) was 1 min. For the same compound, the MIC [2, 8] was 20 µg/mL, the MIC [2, 9] was 0.1 µg/mL and the “animals alive on the 15th day” value (Pseudomonas Aeruginosa; 0.25% by weight) was 4. The “animals dead on the 15th day” value (Pseudomonas Aeruginosa; 0.25% by weight) was 6, the “% survivors” value (Pseudomonas Aeruginosa; 0.25% by weight) was 40% and the “animals alive on the 15th day” value (Pseudomonas Aeruginosa; 0.5% by weight) was 6. For the same compound, the “animals dead on the 15th day” value (Pseudomonas Aeruginosa; 0.5% by weight) was 4, the “% survivors” value (Pseudomonas Aeruginosa; 0.5% by weight) was 60% and the “animals alive on the 15th day” value (Pseudomonas Aeruginosa; 1% by weight) was 6. For the same compound, the “animals dead on the 15th day” value (Pseudomonas Aeruginosa; 1% by weight) was 4, the “% survivors” value (Pseudomonas Aeruginosa; 1% by weight) was 60% and the “animals alive on the 15th day” value (Pseudomonas Aeruginosa; 2% by weight) was 7. The “animals dead on the 15th day” value (Pseudomonas Aeruginosa; 2% by weight) was 3, the “% survivors” value (Pseudomonas Aeruginosa; 2% by weight) was 70% and the “efficacy in vivo (in words)” value (Pseudomonas Aeruginosa) was “secure efficacy”. For the same compound, the MIC ([3]; +10% serum) was 0.3 µg/mL, the MIC ([3]; without serum) was less than 0.1 µg/mL and the MIC (Esch. Coli. SKF 12140; +10% serum) was 100 µg/mL. The MIC (Esch. Coli. SKF 12140; without serum) was 2 µg/mL, the sterilization time ([5]; 0.1 g/l) was 2.5 min and the sterilization time ([5]; 0.25 g/l) was 1 min. It also gave a sterilization time ([5]; 0.5 g/l) of 1 min, a sterilization time ([5]; 1 g/l) of 1 min and an MIC (Proteus Vulc. ATCC 881; +10% serum) of 100 µg/mL. The MIC (Proteus Vulc. ATCC 881; without serum) was 2 µg/mL and the MIC (Trich. Foetus ISM 66/23; [10]) was 5 µg/mL.
